{"source": "patent US12516293B2", "about": "“Reagents and methods with Wnt agonists and bioactive lipids for generating and expanding cardiomyocytes” (The Board of Trustees of the Leland Stanford Junior …, priority 2018, dated 2026)", "type_in_all_cases": "cell-based, human", "key": {"[1]": {"tested_on": "TCF/LEF", "assay": "TOPFlash TCF/LEF luciferase reporter in hiPSCs", "conditions": "treatment alone, 2 hours", "method": "and day 30 hiPSC-CMs were replated in 96-well plates and cultured for 2-3 days before transfection with Lipofectamine (Invitrogen) and TOPFlash (TCF/LEF) luciferase Wnt signaling reporter plasmid (M50, Addgene) at 100 ng/well. After 48 hours, media was changed, and cells were subjected to different treatments for 2 hours before lysis and luciferase (Promega) luminescence was measured with a standard luminescence plate reader. […] It was studied whether S1P/LPA treatment of undifferentiated hiPS cells, either alone or in combination with CHIR, could increase the level of nuclear β-catenin. […] To examine whether the increase in nuclear β-catenin level results in an activation of Wnt signaling at the transcriptional level, hiPSCs were transfected with the previously described TOPFlash luciferase reporter plasmid^23 ([…] et al. 2003). This system provides a proportionate visualization of Wnt transcriptional activity using bioluminescence. Subsequently, the cells were treated with dimethyl sulfoxide (DMSO), CHIR, S1P/LPA, or a combination of S1P/LPA and CHIR. […] When S1P/LPA was combined with CHIR, the TCF/LEF-luciferase activity was further increased to more than 60-fold compared with DMSO control (FIG. 16C)."}, "[2]": {"tested_on": "hiPSC-CMs", "assay": "Single cell RNA sequencing of day 12 hiPSC-CMs", "method": "For the single cell gene expression replated hiPSC-CMs were treated at day 12 with DMSO, CHIR99021 or C59 for 24 hours. At day 13 cells were digested with TrypLE Select Enzyme for about 5 minutes and dissociated with gentle pipetting. […] Single cell analysis was performed with the Loupe Cell Browser software. To investigate the global transcriptional changes of hiPSC-CMs in response to gain and loss of Wnt signaling, single cell RNA sequencing was performed in day 12 hiPSC-CMs treated for 24 hours with either DMSO (CTR), CHIR or C59."}, "[3]": {"tested_on": "TCF/LEF", "assay": "TOPFlash TCF/LEF luciferase reporter in day 12 hiPSC-CMs", "conditions": "P0 hiPSC-CMs, 24 hours", "method": "Day 12 hiPSC-CMs were transfected for 48h with a TCF reporter plasmid (TOPflash M50, Addgene) or the mutant reporter plasmid (TOPflash M51, Addgene) and the use of Lipofectamine 3000 (Invitrogen). 72h after transfection cells were treated with various small molecules for 24h. Cells were lysed and mixed with luciferase substrate (Promega) and the firefly luciferase expression was measured with a 96-well micro plate reader (Fisher)."}, "[4]": {"tested_on": "hiPSC-CMs", "assay": "Sarcomere alignment and contractility on micropatterns", "method": "Cells were plated on soft substrates with micropatterned proteins on top. After 3-6 days of culture high resolution movies (Sony Microscopy) were recorded for at least 10 individual cells per group and motion velocity analysis was processed digitally. After recordings, cells were fixed and used for immunohistochemistry and confocal imaging. Sarcomere alignment was quantified with Image J software. CM maturation is accompanied by the formation of highly structured sarcomere, bi- or multinucleation, and cell cycle exit (Bassat et al., 2017; Bersell et al., 2009; Senyo et al., 2014; Uygur and Lee, 2016). […] To address this, age-matched hiPSC-CMs exposed to media containing DMSO (CTR) were compared to ones that have undergone 3 passages in media containing 2.0 μM CHIR using various phenotypic assays of CM function. To assess sarcomere alignment, CHIR and CTR hiPSC-CMs on 7:1 aspect ratio micropatterns (Ribeiro et al., 2015) were cultured and immunostained with TnT and sarcomeric actinin antibodies."}, "[5]": {"tested_on": "hiPSC-CMs", "assay": "ki67/pHH3 proliferation and binucleation of hiPSC-CMs (immunofluorescence)", "method": "Immunohistochemistry was performed with the incubation of primary antibodies overnight followed by 2 hours of incubation with various Alexa fluorescence conjugated secondary antibodies. Images were made with confocal (Zeiss LSM 710) or regular immunofluorescence microscopy (Leica DM IL LED). Primaries used in this study were cardiac troponin T (MS-295, Fisher), Ki67 (ab15580, Abcam), pHH3 (#9701, Cell Signaling), aurora B (ab2254, Abcam), alpha sarcomeric actinin ([…], Sigma-Aldrich), MLC2V (ab48003, Abcam), phospo AKT […] (#9275, Cell Signaling). […] To examine this, the percentage was determined of troponin T (TnT) positive hiPSC-CMs that express the cell cycle marker ki67 or the mitosis marker phospho-histone H3 (pHH3) at each passage after treatment with CHIR or DMSO (CTR) (FIG. 2A-C). […] The short-term (24 hrs) changes were assessed in proliferation rate of day 12 hiPSC-CMs (P0) after treatment with CHIR-, CTR-, or C59, a specific inhibitor of Wnt signaling (FIG. 2I-J)."}, "[6]": {"tested_on": "hiPSC-CMs", "assay": "hiPSC-CM expansion upon serial passaging"}, "[7]": {"tested_on": "AKT1/2/3 and other kinases", "assay": "Phospho-kinase array and western blot in CHIR-treated hiPSC-CMs", "method": "Kinase phosphorylation levels were screened with a Proteome Profiler Human Phospho-Kinase Array Kit (R&D Systems) containing 43 human kinases and total amounts of 2 proteins. Validation was performed with regular western blotting. Total protein expression was measured with a gel imager (Biorad) and processed with pixel intensity software (Biorad)."}, "[8]": {"tested_on": "hiPSC-CMs", "assay": "Motion-derived contractility of day 30 hiPSC-CMs", "conditions": "day 30 hiPSC-CMs vs control", "excerpt": "These studies illustrate an additional role for S1P/LPA to regulate cell cycle activity in well-differentiated hiPSC-CMs and synergize with β-catenin signaling to increase hiPSC-CM proliferation."}, "[9]": {"tested_on": "hiPSCs", "assay": "hiPSC morphology, cell number and marker expression", "conditions": "48-hour treatment of hiPSCs, immunostaining and qPCR", "excerpt": "The changes in gene expression was validated after treatment with bioactive lipids or CHIR from the microarray studies with immunostaining and quantitative PCR analysis (FIG. 17D-E)."}}, "data": [{"smiles": "Cc1c[nH]c(-c2cnc(NCCNc3ccc(C#N)cn3)nc2-c2ccc(Cl)cc2Cl)n1", "note": "[CHIR99021]", "values": [{"measurement": "TCF/LEF-luciferase activity, increase vs DMSO control", "setting": "[1]", "value": "~40", "unit": "fold"}, {"measurement": "cardiac progenitor markers Isl1 and MESP1/2 expression", "setting": "[2]; 24 hours CHIR", "value": "did not result in increased expression"}, {"measurement": "Wnt signaling target genes and cardiogenic transcription factors expression", "setting": "[2]; 24 hours, CHIR vs CTR or C59", "value": "highly upregulated"}, {"measurement": "mature cardiac genes expression", "setting": "[2]; 24 hours, CHIR vs CTR or C59", "value": "dramatically downregulated"}, {"measurement": "TCF/LEF activity (TOPFlash)", "setting": "[3]", "value": "dramatic increase in TCF/LEF activity"}, {"measurement": "sarcomere alignment and organization", "setting": "[4]; 3 passages in 2.0 μM CHIR vs age-matched CTR", "value": "markedly reduced alignment and organization of sarcomeres"}, {"measurement": "contractile force generation", "setting": "[4]; CHIR-treated vs CTR cells", "value": "decreased force generation"}, {"measurement": "extension of window of proliferation (ki67, pHH3)", "setting": "[5]; CHIR vs CTR at each passage", "value": "up to 5 passages"}, {"measurement": "binucleation", "setting": "[5]; compared with CTR or C59 treated cells", "value": "less binucleation"}, {"measurement": "ki67 expression / proliferation rate", "setting": "[5]; day 12 hiPSC-CMs (P0), 24 hrs treatment", "value": "significant difference in ki67 expression"}, {"measurement": "increase in the total cell number", "setting": "[6]; 2.0 μM CHIR from day 12, serial passaging", "value": "greater than 100 fold"}, {"measurement": "increase in CM number", "setting": "[6]; 2.0 μM CHIR from day 12, serial passaging, TnT+ cells vs DMSO", "value": "greater than 100 fold"}, {"measurement": "cell death", "setting": "[6]; 2.0 μM CHIR, Caspase 3 staining", "value": "without notable cell death"}, {"measurement": "number of passages possible", "setting": "[6]; 2.0 μM CHIR, DMSO cells cease to proliferate after first passage", "value": "up to 5 times"}, {"measurement": "hiPSC-CMs generated from 2 million day 12 hiPSC-CMs", "setting": "[6]; CHIR treatment with serial passaging", "value": "300-900 million"}, {"measurement": "time to confluence after passaging", "setting": "[6]; CHIR-treated early passage hiPSC-CMs", "value": "5 to 7", "unit": "days"}, {"measurement": "TnT purity during expansion", "setting": "[6]; expansion of beating hiPSC-CMs", "value": "> 95", "unit": "%"}, {"measurement": "CM purity with each passage (TnT+)", "setting": "[6]; flow cytometry, vs DMSO which decreased", "value": "maintain, if not slightly enrich"}, {"measurement": "phosphorylation of HSP27 and p70S6K", "setting": "[7]; CHIR", "value": "increased phosphorylation"}, {"measurement": "phosphorylation of growth suppressor P27", "setting": "[7]; CHIR", "value": "subtle increase"}, {"measurement": "AKT1/2/3 phosphorylation at T308", "setting": "[7]; screen of 43 kinases, CHIR", "value": "significant upregulation"}, {"measurement": "active form of AKT (pAKT T308)", "setting": "[7]; western blot, CHIR vs DMSO", "value": "rapidly increased"}, {"measurement": "beating frequency or contractile force generation", "setting": "[8]", "value": "no significant difference"}, {"measurement": "Brachyury T (Bry T) expression", "setting": "[9]", "value": "increase both VIM and Brachyury T (Bry T) expression"}, {"measurement": "VIM expression", "setting": "[9]", "value": "increase both VIM and Brachyury T (Bry T) expression"}]}]}
